Test results taken from ChEMBL document CHEMBL4052588, “Design of a Biased Potent Small Molecule Inhibitor of the Bromodomain and PHD Finger-Containing (BRPF) Proteins Suitable for Cellular and in Vivo Studies” (J Med Chem, 2017).

Tests used:
Peregrin = biological target: T1, Peregrin (Homo sapiens, UniProt P55201); experiment: Inhibition of human BRPF1 expressed in Escherichia coli BL21 after 1 hr by BROMOscan assay
T1 sequence (P55201 whole entry): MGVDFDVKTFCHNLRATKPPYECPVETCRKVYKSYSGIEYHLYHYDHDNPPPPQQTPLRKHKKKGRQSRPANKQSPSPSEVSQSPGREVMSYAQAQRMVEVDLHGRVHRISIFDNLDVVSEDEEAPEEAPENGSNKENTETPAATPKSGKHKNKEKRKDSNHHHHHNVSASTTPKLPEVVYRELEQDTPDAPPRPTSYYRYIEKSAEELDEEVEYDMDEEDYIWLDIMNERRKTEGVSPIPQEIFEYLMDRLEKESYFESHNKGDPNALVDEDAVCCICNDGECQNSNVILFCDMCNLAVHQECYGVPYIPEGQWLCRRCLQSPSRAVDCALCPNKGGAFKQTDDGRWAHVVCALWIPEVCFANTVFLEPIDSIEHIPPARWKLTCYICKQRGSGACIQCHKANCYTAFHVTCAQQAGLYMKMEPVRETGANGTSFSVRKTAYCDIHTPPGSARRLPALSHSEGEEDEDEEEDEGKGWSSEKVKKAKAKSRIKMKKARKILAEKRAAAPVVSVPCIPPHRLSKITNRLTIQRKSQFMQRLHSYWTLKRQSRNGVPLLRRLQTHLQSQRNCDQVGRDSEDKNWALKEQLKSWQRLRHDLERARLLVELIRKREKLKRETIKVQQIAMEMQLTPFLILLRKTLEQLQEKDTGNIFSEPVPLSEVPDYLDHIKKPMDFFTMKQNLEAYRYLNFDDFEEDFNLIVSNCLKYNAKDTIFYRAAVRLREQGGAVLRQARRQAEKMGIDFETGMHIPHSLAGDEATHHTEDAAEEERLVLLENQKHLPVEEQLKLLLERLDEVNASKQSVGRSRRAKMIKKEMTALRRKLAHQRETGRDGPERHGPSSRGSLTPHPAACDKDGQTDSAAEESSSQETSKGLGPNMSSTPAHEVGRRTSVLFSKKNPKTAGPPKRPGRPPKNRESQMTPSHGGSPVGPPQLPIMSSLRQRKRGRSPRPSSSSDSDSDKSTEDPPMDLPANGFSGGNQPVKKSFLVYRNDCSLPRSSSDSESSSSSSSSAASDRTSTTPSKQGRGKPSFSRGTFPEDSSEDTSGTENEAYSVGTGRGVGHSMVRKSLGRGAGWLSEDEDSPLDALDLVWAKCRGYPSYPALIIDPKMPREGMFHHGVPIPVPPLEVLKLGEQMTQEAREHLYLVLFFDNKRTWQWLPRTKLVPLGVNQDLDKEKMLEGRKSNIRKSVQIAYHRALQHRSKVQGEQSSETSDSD

[1] = biological target: T2, Bromodomain-containing protein 1 (Homo sapiens) (UniProt O95696)
T2 sequence (whole entry): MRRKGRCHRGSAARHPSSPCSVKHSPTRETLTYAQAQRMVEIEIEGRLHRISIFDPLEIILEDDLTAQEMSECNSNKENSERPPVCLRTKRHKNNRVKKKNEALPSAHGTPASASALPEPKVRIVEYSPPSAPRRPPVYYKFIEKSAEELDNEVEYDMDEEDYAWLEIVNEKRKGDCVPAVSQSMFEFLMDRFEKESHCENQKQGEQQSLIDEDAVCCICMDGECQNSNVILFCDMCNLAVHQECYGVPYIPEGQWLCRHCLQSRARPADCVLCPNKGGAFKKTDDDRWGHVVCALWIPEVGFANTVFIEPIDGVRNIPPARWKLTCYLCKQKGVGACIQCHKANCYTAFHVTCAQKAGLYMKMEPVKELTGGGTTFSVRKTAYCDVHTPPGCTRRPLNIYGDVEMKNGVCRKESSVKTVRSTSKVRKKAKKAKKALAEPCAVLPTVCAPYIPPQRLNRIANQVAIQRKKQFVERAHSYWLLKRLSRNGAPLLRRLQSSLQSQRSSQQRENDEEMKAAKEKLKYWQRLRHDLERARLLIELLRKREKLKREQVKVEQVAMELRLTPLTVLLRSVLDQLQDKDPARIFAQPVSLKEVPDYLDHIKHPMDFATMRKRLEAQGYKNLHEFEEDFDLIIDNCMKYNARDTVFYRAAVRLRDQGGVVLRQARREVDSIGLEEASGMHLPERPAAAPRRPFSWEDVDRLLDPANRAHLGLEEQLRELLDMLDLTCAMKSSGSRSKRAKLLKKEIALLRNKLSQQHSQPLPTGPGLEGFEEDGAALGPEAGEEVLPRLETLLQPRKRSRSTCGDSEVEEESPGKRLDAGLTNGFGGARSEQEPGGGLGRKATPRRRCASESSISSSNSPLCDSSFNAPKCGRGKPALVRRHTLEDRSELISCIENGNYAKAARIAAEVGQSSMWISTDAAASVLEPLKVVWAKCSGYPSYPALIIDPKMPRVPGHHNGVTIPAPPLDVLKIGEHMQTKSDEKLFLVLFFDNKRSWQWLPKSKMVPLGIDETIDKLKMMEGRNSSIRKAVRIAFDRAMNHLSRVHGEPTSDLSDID

[2] = biological target: T3, Bromodomain-containing protein 4 (Homo sapiens, UniProt O60885); experiment: Inhibition of human BRD4-BD1 expressed in Escherichia coli BL21 after 1 hr by BROMOscan assay
Peregrin (Homo sapiens) = biological target: T4, Peregrin (Homo sapiens) (UniProt P55201)
T4 sequence (whole entry): T1 sequence (P55201 whole entry)

[3] = biological target: T5, Bromodomain and PHD finger-containing protein 3 (Homo sapiens) (UniProt Q9ULD4)
T5 sequence (whole entry): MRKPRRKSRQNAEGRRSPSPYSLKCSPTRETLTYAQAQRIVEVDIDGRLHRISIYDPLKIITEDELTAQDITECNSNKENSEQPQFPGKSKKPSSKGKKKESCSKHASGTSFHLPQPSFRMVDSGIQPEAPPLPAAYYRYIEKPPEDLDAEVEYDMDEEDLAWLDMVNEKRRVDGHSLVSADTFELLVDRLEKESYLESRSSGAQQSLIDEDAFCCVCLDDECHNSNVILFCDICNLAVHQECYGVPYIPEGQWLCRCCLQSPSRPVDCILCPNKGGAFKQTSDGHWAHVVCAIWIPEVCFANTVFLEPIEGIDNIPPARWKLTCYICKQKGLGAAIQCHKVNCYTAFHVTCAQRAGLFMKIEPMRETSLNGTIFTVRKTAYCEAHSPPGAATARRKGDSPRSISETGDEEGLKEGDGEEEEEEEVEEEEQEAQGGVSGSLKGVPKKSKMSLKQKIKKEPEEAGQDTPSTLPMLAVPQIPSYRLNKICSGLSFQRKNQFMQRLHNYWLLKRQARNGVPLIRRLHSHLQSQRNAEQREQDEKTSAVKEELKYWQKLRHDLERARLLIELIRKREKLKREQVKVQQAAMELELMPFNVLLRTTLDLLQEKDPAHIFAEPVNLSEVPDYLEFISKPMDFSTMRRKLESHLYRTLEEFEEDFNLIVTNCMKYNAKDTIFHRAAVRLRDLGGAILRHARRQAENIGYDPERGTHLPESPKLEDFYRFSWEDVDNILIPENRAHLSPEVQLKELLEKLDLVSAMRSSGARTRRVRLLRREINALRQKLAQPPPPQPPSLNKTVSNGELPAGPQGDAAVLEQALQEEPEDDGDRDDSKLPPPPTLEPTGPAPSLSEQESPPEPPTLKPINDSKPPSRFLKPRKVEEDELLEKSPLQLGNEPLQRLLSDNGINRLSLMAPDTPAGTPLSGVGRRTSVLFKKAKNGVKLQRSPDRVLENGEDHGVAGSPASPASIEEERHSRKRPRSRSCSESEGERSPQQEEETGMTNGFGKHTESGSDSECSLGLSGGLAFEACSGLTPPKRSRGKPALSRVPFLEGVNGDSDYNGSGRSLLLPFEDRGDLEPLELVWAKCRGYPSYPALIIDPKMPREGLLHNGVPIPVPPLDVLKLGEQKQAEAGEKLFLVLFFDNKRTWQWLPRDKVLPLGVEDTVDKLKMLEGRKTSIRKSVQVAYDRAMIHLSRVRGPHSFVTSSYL

[4] = biological target: T6, Bromodomain-containing protein 1 (Homo sapiens, UniProt O95696); experiment: Inhibition of human BRPF2-BRD1 expressed in Escherichia coli BL21 after 1 hr by BROMOscan assay
T6 sequence (O95696 whole entry): T2 sequence (whole entry)

[5] = biological target: T7, Bromodomain-containing protein 9 (Homo sapiens) (UniProt Q9H8M2)
T7 sequence (whole entry): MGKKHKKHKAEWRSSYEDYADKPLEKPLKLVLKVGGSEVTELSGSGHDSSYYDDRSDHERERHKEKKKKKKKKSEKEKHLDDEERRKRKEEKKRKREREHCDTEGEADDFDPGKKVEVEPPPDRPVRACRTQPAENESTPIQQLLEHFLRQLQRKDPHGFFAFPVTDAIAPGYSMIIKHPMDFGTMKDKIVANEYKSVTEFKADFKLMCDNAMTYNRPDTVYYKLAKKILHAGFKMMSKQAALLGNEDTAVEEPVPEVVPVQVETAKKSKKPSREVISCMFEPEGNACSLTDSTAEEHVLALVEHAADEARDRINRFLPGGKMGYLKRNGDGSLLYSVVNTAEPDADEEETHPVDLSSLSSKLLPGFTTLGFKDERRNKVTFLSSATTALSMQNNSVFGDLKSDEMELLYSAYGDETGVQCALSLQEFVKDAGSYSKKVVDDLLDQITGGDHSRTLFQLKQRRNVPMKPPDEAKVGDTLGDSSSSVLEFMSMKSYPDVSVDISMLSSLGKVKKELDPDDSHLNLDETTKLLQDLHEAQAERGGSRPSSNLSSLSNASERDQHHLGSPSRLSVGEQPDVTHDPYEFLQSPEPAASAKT

[6] = biological target: T3, Bromodomain-containing protein 4
[7] = biological target: T8, Bromodomain and PHD finger-containing protein 3 (Homo sapiens, UniProt Q9ULD4); experiment: Inhibition of human BRPF3 expressed in Escherichia coli BL21 after 1 hr by BROMOscan assay
T8 sequence (Q9ULD4 whole entry): T5 sequence (whole entry)

[8] = biological target: T9, Bromodomain-containing protein 9 (Homo sapiens, UniProt Q9H8M2); experiment: Inhibition of human BRD9 expressed in Escherichia coli BL21 after 1 hr by BROMOscan assay
T9 sequence (Q9H8M2 whole entry): T7 sequence (whole entry)

| IC50 (Peregrin) [nM] | ΔTm [1] [°C] | ΔTm [5] [°C] | ΔTm [6] [°C] | Compound | other results |
| --- | --- | --- | --- | --- | --- |
|  | 1.3 |  |  | Cn1c(=O)ccc2cc(NS(=O)(=O)c3ccc(C#N)cc3F)ccc21 | ΔTm (Peregrin (Homo sapiens)): 3.6 °C; ΔTm [3]: 1.2 °C |
|  | 2.1 | 2.5 | 1.1 | Cn1c(=O)ccc2cc(NS(=O)(=O)c3cccc(C#N)c3)ccc21 |  |
|  | 2.4 | 2.3 | 1.4 | Cn1c(=O)ccc2cc(NS(=O)(=O)c3ccc(C#N)cc3)ccc21 | IC50 [7]: 1000 nM; IC50 [2]: 2800 nM |
|  | 0.9 | 2.9 | 1.3 | Cn1c(=O)ccc2cc(NS(=O)(=O)c3ccccc3C#N)ccc21 |  |
|  | 1.9 | 3.5 | 1.1 | Cn1c(=O)ccc2cc(NS(=O)(=O)c3ccccc3)ccc21 | IC50 [8]: 220 nM; IC50 [2]: 1700 nM; ΔTm [3]: 1.5 °C |

Second part, the compound before the results:

| Compound | IC50 (Peregrin) [nM] | ΔTm [1] [°C] | ΔTm [5] [°C] | ΔTm [6] [°C] | other results |
| --- | --- | --- | --- | --- | --- |
| CCc1cc2cc(NS(=O)(=O)c3ccc(C#N)cc3)ccc2n(C)c1=O | 180 | 3.3 |  |  |  |
| COc1ccccc1S(=O)(=O)Nc1ccc2c(c1)cc(C)c(=O)n2C |  |  |  |  | IC50 [2]: 600 nM |
| Cn1c(=O)ccc2cc(NS(=O)(=O)c3ccc(Cl)c(Cl)c3)ccc21 | 44 | 2.5 |  |  | IC50 [4]: 230 nM; ΔTm (Peregrin (Homo sapiens)): 4.9 °C |
| Cn1c(=O)ccc2cc(N)ccc21 | 2100 |  |  |  |  |
| CCn1c(=O)c(C)cc2cc(NS(=O)(=O)c3ccc(C#N)cc3)ccc21 | 15 | 1.5 |  |  | ΔTm (Peregrin (Homo sapiens)): 5.2 °C; ΔTm [3]: 1.2 °C |
| Cc1cc2cc(N)ccc2n(C)c1=O | 190 |  |  |  |  |
